Where two headings read alike, the source gives them in different places. Numbered stars: 1 amine (or outer) side, 2 acyl side, 3 side chain; on linkers, the order of the positions; unused ones are H or OH. Square brackets hold non-standard residues; d marks the D form. Side chains are listed from the residue outwards. Peptide text beside a SMILES is read from it. * marks the point of attachment. C18 diacid = O=C(O)CCCCCCCCCCCCCCCCC(=O)*; γGlu = O=C(O)[C@H](CCC(=O)[*:2])N[*:1]; αMeF = C[C@](N)(Cc1ccccc1)C(=O)O; αMeK = C[C@](N)(CCCCN)C(=O)O; Lauroyl = CCCCCCCCCCCC(=O)*; αMeS = C[C@](N)(CO)C(=O)O; AEEA = NCCOCCOCC(=O)O; Aib = CC(C)(N)C(=O)O
Legend:
Assay type in all cases: cell-based
[1] = target: T1, human glucose-dependent insulinotropic peptide receptor (GIPR) (Homo sapiens, UniProt P48546); test: cAMP assay, human GIPR cells
T1 construct: expressed in transfected cells; host or cells: HEK293 cells or CHO cells
T1 sequence (P48546 22-466): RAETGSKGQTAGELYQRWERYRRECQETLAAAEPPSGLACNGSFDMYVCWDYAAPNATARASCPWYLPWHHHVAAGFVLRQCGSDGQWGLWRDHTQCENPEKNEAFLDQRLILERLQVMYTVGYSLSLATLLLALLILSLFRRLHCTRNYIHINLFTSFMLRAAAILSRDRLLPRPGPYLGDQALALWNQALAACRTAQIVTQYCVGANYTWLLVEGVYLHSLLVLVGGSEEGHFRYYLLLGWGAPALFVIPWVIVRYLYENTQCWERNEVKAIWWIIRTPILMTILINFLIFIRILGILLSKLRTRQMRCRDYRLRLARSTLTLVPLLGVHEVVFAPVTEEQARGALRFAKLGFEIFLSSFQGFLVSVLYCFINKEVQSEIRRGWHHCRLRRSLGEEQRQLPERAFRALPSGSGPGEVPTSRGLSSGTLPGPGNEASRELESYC
Outline: (§1)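 Peptide-stimulated cAMP measured by two-step HTRF after a 30 min room-temperature incubation with receptor-expressing cells (hGLP-1R, hGIPR at 1×10^5 cells/ml; hGCGR at 2×10^5 cells/ml). Duplicate dilutions; EC50 from 4-parameter logistic fit of % Delta F.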

GLP-1R (INS1e cells) = target: T2, GLP-1R (INS1e cells) (Rattus norvegicus, UniProt P32301); test: INS1e assay, cAMP activity at GLP-1R
T2 construct: endogenous in cells; host or cells: INS1e cells
T2 sequence (P32301 22-463): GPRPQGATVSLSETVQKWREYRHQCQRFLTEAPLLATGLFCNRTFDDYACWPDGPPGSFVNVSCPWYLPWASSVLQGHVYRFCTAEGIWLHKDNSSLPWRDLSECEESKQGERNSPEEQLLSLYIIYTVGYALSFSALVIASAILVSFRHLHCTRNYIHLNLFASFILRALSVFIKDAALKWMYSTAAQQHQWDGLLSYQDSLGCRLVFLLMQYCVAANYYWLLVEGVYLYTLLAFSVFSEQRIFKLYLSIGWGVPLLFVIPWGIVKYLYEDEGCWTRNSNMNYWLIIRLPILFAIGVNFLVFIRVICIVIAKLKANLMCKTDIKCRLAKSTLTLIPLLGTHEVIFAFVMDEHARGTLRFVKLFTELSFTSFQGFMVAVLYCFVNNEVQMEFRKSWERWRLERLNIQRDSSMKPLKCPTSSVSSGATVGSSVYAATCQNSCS

[2] = target: T3, human glucagon receptor (GCGR) (Homo sapiens, UniProt P47871); test: cAMP assay, human GCGR cells
T3 construct: expressed in transfected cells; host or cells: HEK293 cells or CHO cells
T3 sequence (P47871 26-477): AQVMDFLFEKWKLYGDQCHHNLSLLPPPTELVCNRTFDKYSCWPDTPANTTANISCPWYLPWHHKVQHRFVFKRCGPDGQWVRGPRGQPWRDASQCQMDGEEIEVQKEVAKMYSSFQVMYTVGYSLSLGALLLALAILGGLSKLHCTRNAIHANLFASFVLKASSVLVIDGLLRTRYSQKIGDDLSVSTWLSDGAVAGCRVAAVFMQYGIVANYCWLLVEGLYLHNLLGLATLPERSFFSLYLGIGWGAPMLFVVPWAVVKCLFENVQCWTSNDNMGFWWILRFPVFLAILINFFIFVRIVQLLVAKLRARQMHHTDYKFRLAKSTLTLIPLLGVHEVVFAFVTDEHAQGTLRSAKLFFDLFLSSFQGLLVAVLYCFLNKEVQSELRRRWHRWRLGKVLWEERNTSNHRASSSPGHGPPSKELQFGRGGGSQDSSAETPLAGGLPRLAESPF
Outline: as §1

[3] = target: T4, human GLP-1 receptor (GLP-1R) (Homo sapiens, UniProt P43220); test: cAMP assay, human GLP-1R cells; details: cAMP activity
T4 construct: expressed in transfected cells; host or cells: HEK293 cells or CHO cells
T4 sequence (P43220 24-463): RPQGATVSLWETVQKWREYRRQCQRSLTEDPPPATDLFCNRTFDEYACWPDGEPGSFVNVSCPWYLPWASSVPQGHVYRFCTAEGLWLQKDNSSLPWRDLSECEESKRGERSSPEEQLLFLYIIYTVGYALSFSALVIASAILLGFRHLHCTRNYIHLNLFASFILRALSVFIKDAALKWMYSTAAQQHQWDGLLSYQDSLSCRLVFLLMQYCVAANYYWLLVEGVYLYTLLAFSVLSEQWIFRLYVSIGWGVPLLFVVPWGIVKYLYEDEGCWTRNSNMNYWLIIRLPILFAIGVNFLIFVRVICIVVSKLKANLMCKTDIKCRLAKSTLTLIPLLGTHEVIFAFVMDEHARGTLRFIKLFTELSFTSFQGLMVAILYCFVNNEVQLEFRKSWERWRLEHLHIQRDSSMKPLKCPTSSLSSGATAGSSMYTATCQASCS
Outline: as §1

[4] = cAMP activity, first determination (n1), read-out: Primary assay EC50 GIP-R
[5] = cAMP activity, second determination (n2), read-out: Primary assay EC50 GIP-R
[6] = Table 8, substituted and mono-lipidated peptides, mean of n1 and n2, read-out: INS1e assay EC50 Mean pM GLP-1R
[7] = Table 8, substituted and mono-lipidated peptides, replicate n1, read-out: INS1e assay EC50 GLP-1R n1
[8] = Table 8, substituted and mono-lipidated peptides, replicate n2, read-out: INS1e assay EC50 GLP-1R n2
[9] = cAMP activity, second determination (n2), read-out: Primary assay EC50 Gluc-R
[10] = first determination (n1), read-out: Primary assay EC50 GLP-1R n1
[11] = mean of n1 and n2, read-out: Mean pM GLP-1R
[12] = second determination (n2), read-out: Primary assay EC50 GLP-1R n2

CC[C@H](C)[C@H](NC(=O)[C@](C)(Cc1ccccc1)NC(=O)[C@H](CCC(=O)O)NC(=O)[C@H](CCCCNC(=O)COCCOCCNC(=O)COCCOCCNC(=O)CC[C@H](NC(=O)CCCCCCCCCCCCCCCCC(=O)O)C(=O)O)NC(=O)[C@H](C)NC(=O)[C@H](C)NC(=O)[C@H](CCC(=O)O)NC(=O)CNC(=O)[C@H](CCC(=O)O)NC(=O)[C@H](CC(C)C)NC(=O)[C@](C)(Cc1ccccc1)NC(=O)[C@H](CO)NC(=O)[C@](C)(CO)NC(=O)[C@@H](NC(=O)[C@H](CC(=O)O)NC(=O)[C@H](CO)NC(=O)[C@@H](NC(=O)[C@](C)(Cc1ccccc1)NC(=O)[C@H](CO)NC(=O)CNC(=O)[C@H](CCC(=O)O)NC(=O)C(C)(C)NC(=O)[C@@H](N)Cc1c[nH]cn1)[C@@H](C)O)C(C)C)C(=O)N[C@@H](C)C(=O)N[C@@H](Cc1c[nH]c2ccccc12)C(=O)N[C@H](C(=O)N[C@H](C(=O)N[C@@](C)(CCCCN)C(=O)NCC(=O)NCC(N)=O)C(C)C)C(C)C [compound 49] (H-H[Aib]EGS[αMeF]TSDV[αMeS]S[αMeF]LEGEAAK([AEEA-AEEA-γGlu-C18 diacid])E[αMeF]IAWVV[αMeK]GG-NH2; N-terminus assumed)
EC50 [1, 4]: ≥ 25000 pM
EC50 [1, 5]: ≥ 25000 pM
EC50 (GLP-1R (INS1e cells); [6]): 10000 pM
EC50 (GLP-1R (INS1e cells); [7]): 9350 pM
EC50 (GLP-1R (INS1e cells); [8]): 10700 pM
EC50 [2, 9]: ≥ 25000 pM
EC50 [3, 10]: 96 pM
EC50 [3, 11]: 124 pM
EC50 [3, 12]: 150 pM

CCCCCCCCCCCCCCCCCC(=O)NCCOCCOCC(=O)NCCOCCOCC(=O)NCCOCCOCC(=O)NCCCC[C@H](NC(=O)[C@H](C)NC(=O)[C@H](C)NC(=O)[C@H](CCC(=O)O)NC(=O)CNC(=O)[C@H](CCC(=O)O)NC(=O)[C@H](CC(C)C)NC(=O)[C@](C)(Cc1ccccc1)NC(=O)[C@H](CO)NC(=O)[C@](C)(CO)NC(=O)[C@@H](NC(=O)[C@H](CC(=O)O)NC(=O)[C@H](CO)NC(=O)[C@@H](NC(=O)[C@](C)(Cc1ccccc1)NC(=O)[C@H](CO)NC(=O)CNC(=O)[C@H](CCC(=O)O)NC(=O)C(C)(C)NC(=O)[C@@H](N)Cc1c[nH]cn1)[C@@H](C)O)C(C)C)C(=O)N[C@@H](CCC(=O)O)C(=O)N[C@@](C)(Cc1ccccc1)C(=O)N[C@H](C(=O)N[C@@H](C)C(=O)N[C@@](C)(Cc1ccccc1)C(=O)N[C@H](C(=O)N[C@H](C(=O)N[C@@H](CCCCN)C(=O)NCC(=O)NCC(N)=O)C(C)C)C(C)C)[C@@H](C)CC [compound 56]
EC50 [1, 4]: ≥ 26000 pM
EC50 [1, 5]: ≥ 26000 pM
EC50 (GLP-1R (INS1e cells); [6]): 56 pM
EC50 (GLP-1R (INS1e cells); [7]): 35.2 pM
EC50 (GLP-1R (INS1e cells); [8]): 77 pM
EC50 [2, 9]: ≥ 26000 pM
EC50 [3, 10]: 2.9 pM
EC50 [3, 11]: 3.2 pM
EC50 [3, 12]: 3.5 pM

CCCCCCCCCCCC(=O)N[C@@H](CCC(=O)NCCOCCOCC(=O)NCCOCCOCC(=O)NCCCC[C@H](NC(=O)[C@H](CC(=O)O)NC(=O)[C@H](CO)NC(=O)[C@@H](NC(=O)[C@](C)(Cc1ccccc1)NC(=O)[C@H](CO)NC(=O)CNC(=O)[C@H](CCC(=O)O)NC(=O)C(C)(C)NC(=O)[C@@H](N)Cc1c[nH]cn1)[C@@H](C)O)C(=O)N[C@@H](CO)C(=O)N[C@@H](CO)C(=O)N[C@@H](Cc1ccc(O)cc1)C(=O)N[C@@H](CC(C)C)C(=O)N[C@@H](CCC(=O)O)C(=O)NCC(=O)N[C@@H](CCC(=O)O)C(=O)N[C@@H](C)C(=O)N[C@@H](C)C(=O)N[C@@](C)(CCCCN)C(=O)N[C@@H](CCC(=O)O)C(=O)N[C@@H](Cc1ccccc1)C(=O)N[C@H](C(=O)N[C@@H](CCCCNC(=O)COCCOCCNC(=O)COCCOCCNC(=O)CC[C@H](NC(=O)CCCCCCCCCCC)C(=O)O)C(=O)N[C@@H](Cc1c[nH]c2ccccc12)C(=O)N[C@H](C(=O)N[C@H](C(=O)N[C@@H](CCC(=O)O)C(=O)NCC(=O)NCC(N)=O)C(C)C)C(C)C)[C@@H](C)CC)C(=O)O [compound 256] (H-H[Aib]EGS[αMeF]TSDK([AEEA-AEEA-γGlu-Lauroyl])SSYLEGEAA[αMeK]EFIK([AEEA-AEEA-γGlu-Lauroyl])WVVEGG-NH2; N-terminus assumed)
EC50 ([1]; Table 9, bis-lipidated peptides, first replicate, read-out: Primary assay EC50 GIP-R (n1)): ≥ 22200 pM
EC50 ([1]; Table 9, bis-lipidated peptides, second replicate, read-out: Primary assay EC50 GIP-R (n2)): ≥ 22200 pM
EC50 (GLP-1R (INS1e cells); Table 10, bis-lipidated peptides, mean of n1 and n2, read-out: INS1e assay EC50 Mean pM GLP-1R): 1300 pM
EC50 ([2]; Table 9, bis-lipidated peptides, first replicate, read-out: Primary assay EC50 Gluc-R (n1)): ≥ 22200 pM
EC50 ([2]; Table 9, bis-lipidated peptides, second replicate, read-out: Primary assay EC50 Gluc-R (n2)): ≥ 22200 pM

From patent US20210221866A1, “PROTEASE-RESISTANT LIPIDATED GLP-1 ANALOGS” (MEDIMMUNE LIMITED, priority 2015, published 2021)
